This is an account of results in patent US20210078972A1, “QUINOLINE OR QUINAZOLINE COMPOUND AND APPLICATION THEREOF” (HAIHE BIOPHARMA CO., LTD., priority 2018, published 2021).

What is called IC50 is the concentration that gives 50% inhibition.

Data set [1] concerns the target T1, AXL kinase domain recombinant protein (Homo sapiens, UniProt P30530).
T1 construct: the AXL kinase domain recombinant protein (eurofins, 14-512); purchased eurofins 14-512
T1 sequence (P30530 536-807 limits assumed): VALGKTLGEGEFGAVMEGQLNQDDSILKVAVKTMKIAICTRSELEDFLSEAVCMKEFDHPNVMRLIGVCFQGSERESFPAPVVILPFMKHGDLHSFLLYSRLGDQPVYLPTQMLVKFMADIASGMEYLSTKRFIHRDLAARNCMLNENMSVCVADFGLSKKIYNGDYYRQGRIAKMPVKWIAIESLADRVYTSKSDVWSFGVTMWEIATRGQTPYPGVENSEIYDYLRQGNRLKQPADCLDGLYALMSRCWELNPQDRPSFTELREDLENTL
Briefly: AXL kinase inhibition, ELISA. The class given is biochemical. The settings on record: ATP 5 μM. The protocol:
Detection of the activity of kinase: Enzyme-linked immunosorbent assay (ELISA) technology was used to detect the inhibitory activities of the compounds against the kinase. […] After the liquid in the well was discarded, the plate was washed three times with T-PBS (PBS containing 0.1% Tween-20), 200 μL T-PBS per well, 5 minutes for each time. The enzyme label plate was dried in an oven at 37° C. for 1-2 hours. To each well was added 50 μL of ATP solution diluted with reaction buffer (50 mM HEPES, pH 7.4, 50 mM MgCl2, 0.5 mM MnCl2, 0.2 mM Na3VO4, 1 mM DTT) with a final concentration of 5 μM. […] Two wells with no enzyme for control are required for each experiment. The plate was incubated on a shaker (100 rpm) at 37° C. and reacted for 1 hour. The plate was washed three times with T-PBS. 100 μ/well of primary antibody PY99 dilution was added and the plate was reacted in a shaker at 37° C. for 0.5 hour. The plate was washed three times with T-PBS. 100 μ/well of secondary antibody horseradish peroxidase-labeled goat anti-mouse IgG dilution was added and the plate was reacted in a shaker at 37° C. for 0.5 hour. The plate was washed three times with T-PBS. 2 mg/ml of OPD color solution was added with 100 μ/well (diluted with 0.1 M citric acid-sodium citrate buffer (pH=5.4) containing 0.03% H2O2), and the plate was reacted at 25° C. in the dark for 1-10 minutes. (Ultrasound is required for the dissolution of OPD, and the color solution needs to be prepared for immediate use). 50 μ/well of 2 M H2SO4 was added to stop the reaction, and the wavelength-adjustable enzyme-labeling instrument SPECTRA MAX 190 was used to read the data at a wavelength of 490 nm.
The inhibition rate of the sample was obtained by the following formula: […]
The IC50 values were obtained by regression with the four-parameter method using the software attached to the enzyme-labeling instrument.
Background: ELISA stands for enzyme-linked immunosorbent assay.

Data set [2] concerns Mixed primary macaca fascicularis hepatocytes. Description: Metabolism in monkey hepatocytes, UPLC-UV/Q-TOF MS. The settings on record: 180 min. Format: in vitro ADME. The protocol:
In this example, a UPLC-UV/Q-TOF MS method was used to evaluate the differences in the metabolic processes of TL134 in hepatocytes of five species of human, monkey, canine, rat, and mouse.
(§1) The total volume of each incubation sample was 100 μL, the medium was WME medium (pH 7.4), and the incubation sample included hepatocytes with a cell density of 1.0×10^6 cells/mL and TL134 with a final concentration of 3.0 μM; the negative control sample was incubated with thermal-inactivated mixed hepatocytes (without cell counting) of five species of animals and TL134, and the buffer control sample was incubated with WME medium and TL134. All samples were incubated at 37° C. for 180 min, and then 100 μL of ice-cold acetonitrile was added to stop the reaction. The samples were stored at −70° C. for ready to be tested, and all incubation samples were double samples.
(§2) Triple TOF 5600′ quadrupole-time-of-flight tandem mass spectrometer (Q-TOF MS), equipped with electrospray ionization source (ESI source) and CDS automatic calibration system, AB SCIEX Company, USA; Acquity UPLC liquid chromatography system, including binary infusion pump, autosampler, column oven, degasser and TUV ultraviolet detector, Waters Company, USA. […]

Data set [3] relates to Mixed primary male SD rat hepatocytes. Description: Metabolism in rat hepatocytes, UPLC-UV/Q-TOF MS. Format: in vitro ADME. The settings on record: 180 min. The procedure:
(§3) In this example, a UPLC-UV/Q-TOF MS method was used to evaluate the differences in the metabolic processes of TL134 in hepatocytes of five species of human, monkey, canine, rat, and mouse. It provides a reference for the selection of preclinical pharmacokinetics and studies on animal species safety evaluation.
as §1, §2

Data set [4] relates to Mixed primary human hepatocytes. Briefly: Metabolism in human hepatocytes, UPLC-UV/Q-TOF MS. The class given is in vitro ADME. The settings on record: 180 min. The procedure: as §3, §1, §2

As to `CCc1ccc2c(c1)c(=O)c(C(=O)Nc1ccc(Oc3ncnc4cc(OCCCN5CCOCC5)c(OC)cc34)c(F)c1)c(C)n2C` [GDL5000123, 6-ethyl-N-(3-fluoro-4-((6-methoxy-7-(3-morpholinopropoxy)quinazolin-4-yl)oxy)phenyl)-1,2-dime thyl-4-oxo-1,4-dihydroquinoline-3-carboxamide, reference compound], the IC50 in data set [1] is 1.2 nM. Also, the “prototype drug metabolized, judging from the UV chromatographic peak areas” value in data set [2] is reported as “approximately 41.3%”.
`COc1cc2c(Oc3ccc(NC(=O)c4c(C)n(C)c5ccc(OC(F)(F)F)cc5c4=O)cc3F)ncnc2cc1OCCCN1CCOCC1` [TL-134, N-(3-fluoro-4-((6-methoxy-7-(3-morpholinopropoxy)quinazolin-4-yl)oxy)phenyl)-1,2-dim ethyl-4-oxo-6-(trifluoromethoxy)-1,4-dihydroquinoline-3-carboxamide]: the half-inhibitory concentration (IC50) in data set [1] amounted to 1.1 nM. For the same molecule, the “prototype drug metabolized, judging from the UV chromatographic peak areas” value in data set [3] was about 19.8%; in data set [2] it was about 4.6%; in data set [4], “approximately 17.8%”.
